In patent US9464064B2, “HCV helicase inhibitors and methods of use thereof” (University of Kansas, priority 2011, dated 2016):
Residues, ends and D or L forms follow the SMILES beside them. *: point of attachment. Cbz = O=C(OCc1ccccc1)*; CH2Cl = ClC*

Biological target: T1, HCV NS3 helicase NS3h_1b(con1) (Hepatitis C virus genotype 1b, UniProt Q9WMX2)
T1 construct: truncated C-terminally His-tagged NS3 proteins lacking the N-terminal protease, called NS3h; His-tag (C); made in house
Assay: MBHA screen of NCI mechanistic set library at 20 μM (percent inhibition, compound interference)
Format: biochemical
Settings: compounds at 20 μM; for Inh. (%) (Inhibition): calculated from Equation 1
Method in brief: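 Molecular beacon-based DNA unwinding assay; compounds screened at 20 μM in triplicate, with DMSO-only negative and 500 nM dT20 positive controls. Fluorescence (ex 643/em 670 nm) was read before and 30 min after adding ATP to 1 mM. Percent inhibition came from the change relative to DMSO controls; interference from pre-ATP fluorescence versus DMSO controls.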

[1] = MBHA with DNA substrate, assay interference calculated with Equation 2
[2] = assay interference calculated with Equation 2 (fluorescence vs DMSO-only controls before ATP)

T1 sequence (Q9WMX2 1192-1657): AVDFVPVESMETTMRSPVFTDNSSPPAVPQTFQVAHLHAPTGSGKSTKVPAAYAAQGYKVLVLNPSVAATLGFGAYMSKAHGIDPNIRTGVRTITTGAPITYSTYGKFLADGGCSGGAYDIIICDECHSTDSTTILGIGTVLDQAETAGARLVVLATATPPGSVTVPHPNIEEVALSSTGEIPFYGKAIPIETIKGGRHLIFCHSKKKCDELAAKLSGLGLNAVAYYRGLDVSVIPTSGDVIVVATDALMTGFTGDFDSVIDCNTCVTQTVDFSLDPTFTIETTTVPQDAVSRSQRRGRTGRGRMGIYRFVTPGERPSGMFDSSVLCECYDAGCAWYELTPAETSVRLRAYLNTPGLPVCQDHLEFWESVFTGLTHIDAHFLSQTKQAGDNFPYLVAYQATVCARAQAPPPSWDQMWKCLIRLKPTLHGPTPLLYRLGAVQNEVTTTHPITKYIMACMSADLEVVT

Int.* (Ratio) (Interference) [1]	Inh. (%) (Inhibition) (MBHA with DNA substrate)	Inh. (%) (Inhibition) (MBHA with a DNA substrate)	Int.* (Ratio) (Interference) [2]	SMILES
1.20	−14.2			CCSC(=O)N1c2ccc(OC)cc2C=CC1C#N (stereo not drawn) [Compound 165897]
		7.6	0.82	CN1CCN(CCNc2ccc(CO)c3sc4ccccc4c(=O)c23)CC1 [Compound 166381]
0.18	60.4			Cc1cc(N)c2ccccc2[n+]1CCCCCCCCCC[n+]1c(C)cc(N)c2ccccc21.[Cl-].[Cl-] [Compound 166454]
0.87	−13.8			CC1C(Oc2c(-c3ccc(O)c(O)c3)oc3c(O)cc(O)cc3c2=O)OC(O)C(O)C1O (stereo not drawn) [Compound 167410]
0.96	−12.6			CC(=O)OCCN1c2ccccc2Sc2cnccc21 [Compound 168221]
1.09	1.4			CC(C)CC(NC(=O)OCc1ccccc1)C(=O)NC(Cc1ccccc1)C(=O)CCl (stereo not drawn) [Compound 173904] (Cbz-Leu-Phe-CH2Cl; configuration not given here)
1.11	−12.0			CC(=O)NC(CC(C)C)C(=O)NC(Cc1ccccc1)C(=O)CCl (stereo not drawn) [Compound 173905] (Ac-Leu-Phe-CH2Cl; configuration not given here)
0.91	−13.1			CN(Cc1cnc2nc(N)nc(N)c2n1)c1ccc(C(=O)NC(CCC(=O)O)C(=O)O)c2ccccc12 (stereo not drawn) [Compound 174121]
		7.0	1.09	N=N/C(=C\c1c(O)[nH]c2ccccc12)c1ccccc1 [Compound 175274]
0.90	4.7			COc1ccc(C=CC(=O)Oc2cc(O)cc(O)c2)cc1 [Compound 175296]
0.93	1.5			Cc1ccc(C2NC(=O)c3ccccc3N2)s1 (stereo not drawn) [Compound 175634]
		−5.0	0.96	O=C1NC(c2cccc3ccccc23)Nc2ccc(Cl)cc21 (stereo not drawn) [Compound 175636]
1.08	0.3			C(=C/c1nc2ccccc2o1)/c1ccc2c(c1)OCO2 [Compound 176655]
		9.2	0.49	NC(N)=NCCCS(=O)(=O)Nc1ccc(Nc2c3ccccc3nc3cc([N+](=O)[O-])ccc23)cc1 [Compound 177365]
0.90	13.5			CC/C(=C(\c1ccccc1)c1ccc(OCCN(C)C)cc1)c1ccccc1.O=C(O)CC(O)(CC(=O)O)C(=O)O [Compound 180973]
0.50	38.3			COc1ccc2cc1Oc1ccc(cc1)CC1c3c(cc(OC)c4c3Oc3cc5c(cc3O4)CCNC5C2)CCN1C (stereo not drawn) [Compound 181486]
		−39.0	1.09	C[C@H]1O[C@@H](c2ccc3c(c2O)C(=O)C2=C(C3=O)[C@@]3(O)C(=O)C[C@](C)(O)C[C@@]3(O)C=C2)C[C@@H](O)[C@@H]1O [Compound 184398]
0.42	27.4			C[n+]1cc2cc(O)c(O)cc2c2ccc3cc(O)c(O)cc3c21.Cl.[Cl-].c1ccncc1 [Compound 184403]
		6.8	0.90	NC(=S)N/N=C/c1ccc(OC(=O)COc2ccccc2Cl)cn1 [Compound 185056]
		−26.6	1.11	Oc1ccc(/C=N/NC(=S)Nc2cccnc2)nc1 [Compound 185065]
1.07	−1.8			Cc1cc(C)c(NC(=O)/C=C/c2ccccc2)c(C)c1 [Compound 191384]
1.06	−2.3			Cc1ccc(NC(=O)/C=C/c2ccccc2)c(C)c1 [Compound 191389]
1.10	2.5			Cc1c(Cl)cccc1NC(=O)/C=C/c1ccccc1 [Compound 191392]
		−6.3	1.05	Cc1cccc(Cl)c1NC(=O)/C=C/c1ccccc1 [Compound 191393]
		−5.7	0.99	O=C1OC(c2ccco2)=N/C1=C\c1ccc(Cl)c(Cl)c1 [Compound 202000]
0.56	56.5			CC[C@@]1(O)C[C@H](O[C@H]2C[C@H](N(C)C)[C@H](O[C@H]3C[C@H](O)[C@H](O[C@H]4CCC(=O)[C@H](C)O4)[C@H](C)O3)[C@H](C)O2)c2c(cc3c(c2O)C(=O)c2c(O)cccc2C3=O)[C@@H]1C(=O)OC [Compound 208734]

More lines, now with the values behind:

SMILES	Int.* (Ratio) (Interference) [1]	Inh. (%) (Inhibition) (MBHA with DNA substrate)	Inh. (%) (Inhibition) (MBHA with a DNA substrate)	Int.* (Ratio) (Interference) [2]
COC(=O)[C@@]12OC[C@]34[C@H]([C@@H](O)[C@@H]1O)[C@@]1(C)CC(=O)C(O)=C(C)[C@@H]1C[C@H]3OC(=O)[C@H](OC(=O)/C=C(\C)C(C)C)[C@@H]24 [Compound 165563]	0.95	14.6		
CSc1ccc(NC(=O)CCl)cc1 [Compound 166464]	1.00	3.7		
CCOC(=O)[C@H](CC(C)C)NC(=O)C(Cc1ccc(N(CCCl)CCCl)cc1)NC(C)=O (stereo partly drawn) [Compound 167780]	1.00	22.8		
Cc1cc2nc(C=C(C(F)(F)F)C(F)(F)F)oc2cc1C [Compound 168415]	0.95	13.3		
CCC[CH2][Pb]([Cl])([CH2]CCC)[CH2]CCC [Compound 168597]	0.98	2.6		
CNC(=S)N/N=C/c1ccc([N+](=O)[O-])s1 [Compound 169543]			9.6	1.02
COC(=O)C1(C)CCCC2(C)c3cc(OC)ccc3C(=O)C(Br)C12 (stereo not drawn) [Compound 169600]	0.90	0.0		
OCCNCCN1CCN(CCCN2c3ccccc3Sc3ccc(C(F)(F)F)cc32)CC1 [Compound 169676]	0.87	18.3		
CC(C)C[C@H]1C(=O)N2CCC[C@H]2[C@]2(O)O[C@](NC(=O)[C@@H]3C=C4c5cccc6[nH]c(Br)c(c56)C[C@H]4N(C)C3)(C(C)C)C(=O)N12.CS(=O)(=O)O [Compound 169774]	0.92	−15.6		
C[C@H](CN1CC(=O)NC(=O)C1)N1CC(=O)NC(=O)C1 [Compound 169779]	1.12	−9.4		
O=c1[nH]c2ccccc2n1C1CCN(CCCC(c2ccc(F)cc2)c2ccc(F)cc2)CC1 [Compound 170984]	0.95	4.7		
COC(=O)[C@@]12OC[C@]34[C@H]([C@@H](O)[C@@H]1O)[C@@]1(C)CC(=O)C(O)=C(C)[C@@H]1C[C@H]3OC(=O)[C@H](OC(=O)C=C(C)C)[C@@H]24 [Compound 172924]	1.01	13.3		
CC(=O)[O][Pb]([O]C(C)=O)([c]1ccccc1)[c]1ccccc1 [Compound 173046]	0.93	−12.2		
[Cl][Hg][c]1ccc2ccccc2c1 [Compound 174163]	1.00	−18.5		
CC(=O)[O][Hg][c]1c(C)c(C)c(C)c(C)c1C [Compound 174176]	1.04	6.0		
CCCC(=O)[O-].[Na+] [Compound 174280]	0.90	1.1		
N[C@H](C(=O)O)[C@H]1ON=C(Cl)[C@H]1O [Compound 176324]			−6.8	1.02
COc1ccc(O)c2c(=O)c3c(OC)cc4c(c3oc12)[C@@H]1C=CO[C@@H]1O4 [Compound 178249]	0.87	2.4		
CCOC(=O)NC1=C(N2CC2)C(=O)C(NC(=O)OCC)=C(N2CC2)C1=O [Compound 182986]	1.18	−16.6		
CCC[CH2][Sn]1([CH2]CCC)[S]CC[N]1S(=O)(=O)c1ccc(C)cc1 [Compound 183359]	0.83	13.3		
CC[C@@]1(O)C[C@H](O)c2c(O)c3c(c(O)c2[C@H]1C(=O)OC)C(=O)c1cccc(O)c1C3=O [Compound 196524]	1.02	3.3		
COc1cc2c(c3oc4cccc(O)c4c(=O)c13)[C@@H]1C=CO[C@@H]1O2 [Compound 204985]	1.05	5.4		
CCOC(=O)C(C)NC(=O)N(C)C12CC3CC(CC(C3)C1)C2 (stereo not drawn) [Compound 208913]	1.10	0.9		
CCOC(=O)CNC(=O)NC12CC3CC(CC(C3)C1)C2 [Compound 208914]			−4.1	1.09
COc1ccc(C2C=C(c3ccc4c(c3)OCO4)Oc3c2c(=O)oc2ccccc32)cc1OC (stereo not drawn) [Compound 211489]			−30.1	0.82
